The values below are quoted from earlier work in US20100331419A1, “Combination Therapies for the Treatment of Obesity” (priority 2009, published 2010).

The structures appear in SMILES notation.

The conditions of this data set: literature studies of weight loss medications.
In the case of `CC(C)CC(N(C)C)C1(c2ccc(Cl)cc2)CCC1` (stereo not drawn) [sibutramine], the “weight loss of body weight for drug compared with placebo” value (from here on “weight loss … compared with placebo”) is recorded as “about 5%”. For `CCN[C@@H](C)Cc1cccc(C(F)(F)F)c1` [dexfenfluramine], the “weight loss … compared with placebo” value was “about 5%”. Turning to `CCCCCCCCCCC[C@@H](C[C@@H]1OC(=O)[C@H]1CCCCCC)OC(=O)[C@H](CC(C)C)NC=O` [orlistat], the “weight loss … compared with placebo” value is reported as “about 5%”.
